Several values for one entry are separate records, joined by “and”; a condition that tells them apart may be missing. Equal values may be shown once. Inconclusive results are not listed.
Test system: BDF1 mice, colon carcinoma 38 sc, T/C %
Test: NCI In Vivo Anticancer Drug Screen. Data for tumor model Colon Carcinoma 38 (subcutaneous) in B6D2F1 (BDF1) mice
In short: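 Ratio of survival or tumor size, compound-treated animals relative to vehicle controls, in tumor-bearing mice.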

[1] = endpoint: median tumor weight (est.), dose: 12.5 mg/kg/injection, schedule: Q07DX002 (ip), vehicle: saline with Tween-80, higher = larger tumour
[2] = endpoint: median tumor weight (est.), dose: 25.0 mg/kg/injection, schedule: Q07DX002 (ip), vehicle: saline with Tween-80, higher = larger tumour
[3] = endpoint: median tumor weight (est.), dose: 50.0 mg/kg/injection, schedule: Q07DX002 (ip), vehicle: saline with Tween-80, higher = larger tumour
[4] = endpoint: median tumor weight (est.), dose: 50.0 mg/kg/injection, schedule: Q07DX002 (ip), vehicle: saline, higher = larger tumour

`CS(=O)(=O)OCCN(CCOS(C)(=O)=O)c1ccc(C=O)cc1` was tested, and the T/C (endpoint: median tumor weight (est.), dose: 6.25 mg/kg/injection, schedule: Q07DX002 (ip), vehicle: saline with Tween-80, higher = larger tumour) was 113 % of control, the T/C [1] was 29 % of control and the T/C [2] was 57 % of control. For the same compound, the T/C [3] was 60 % of control.
`Nc1nc(=O)n(C2OC(CO)C(O)C2O)cc1F` (centres undefined) was tested, and the T/C (endpoint: median tumor weight (est.), dose: 12.5 mg/kg/injection, schedule: Q07DX002 (ip), vehicle: saline, higher = larger tumour) was 124 % of control, the T/C (endpoint: median tumor weight (est.), dose: 25.0 mg/kg/injection, schedule: Q07DX002 (ip), vehicle: saline, higher = larger tumour) was 211 % of control and the T/C [4] was 118 % of control and 235 % of control. The T/C (endpoint: median tumor weight (est.), dose: 200.0 mg/kg/injection, schedule: Q07DX002 (ip), vehicle: saline, higher = larger tumour) was 60 % of control and 83 % of control.
`C=C(C)[C@@H]1CCc2c(O)c(O)c(=O)cc(C)c2C1` was tested, and the T/C (endpoint: median tumor weight (est.), dose: 25.0 mg/kg/injection, schedule: Q07DX002 (ip), vehicle: Klucel (hydroxypropylcellulose) (HPC), higher = larger tumour) was 102 % of control, the T/C (endpoint: median tumor weight (est.), dose: 50.0 mg/kg/injection, schedule: Q07DX002 (ip), vehicle: Klucel (hydroxypropylcellulose) (HPC), higher = larger tumour) was 64 % of control and the T/C (endpoint: median tumor weight (est.), dose: 100.0 mg/kg/injection, schedule: Q07DX002 (ip), vehicle: Klucel (hydroxypropylcellulose) (HPC), higher = larger tumour) was 85 % of control. For the same compound, the T/C (endpoint: median tumor weight (est.), dose: 200.0 mg/kg/injection, schedule: Q07DX002 (ip), vehicle: Klucel (hydroxypropylcellulose) (HPC), higher = larger tumour) was 96 % of control and the T/C (endpoint: median tumor weight (est.), dose: 400.0 mg/kg/injection, schedule: Q07DX002 (ip), vehicle: Klucel (hydroxypropylcellulose) (HPC), higher = larger tumour) was 102 % of control.
In the case of `O=C(O)[C@H](Cc1ccccc1)N1C(=O)c2ccccc2C1=O`, the T/C (endpoint: median tumor weight (est.), dose: 50.0 mg/kg/injection, schedule: Q07DX002 (ip), vehicle: DMSO, higher = larger tumour) is reported as 98 % of control and the T/C (endpoint: median tumor weight (est.), dose: 100.0 mg/kg/injection, schedule: Q07DX002 (ip), vehicle: DMSO, higher = larger tumour) is reported as 108 % of control.
With `O=S(=O)(O)O.[NH-]C1CCCCC1[NH-].[Pt+2]` (centres undefined) the T/C (endpoint: median tumor weight (est.), dose: 0.31 mg/kg/injection, schedule: Q07DX002 (ip), vehicle: dextrose, higher = larger tumour) was 56 % of control, the T/C (endpoint: median tumor weight (est.), dose: 0.62 mg/kg/injection, schedule: Q07DX002 (ip), vehicle: dextrose, higher = larger tumour) was 82 % of control and the T/C (endpoint: median tumor weight (est.), dose: 0.63 mg/kg/injection, schedule: Q07DX002 (ip), vehicle: dextrose, higher = larger tumour) was 80 % of control. The T/C (endpoint: median tumor weight (est.), dose: 0.63 mg/kg/injection, schedule: Q07DX003 (ip), vehicle: dextrose, higher = larger tumour) was 51 % of control, the T/C (endpoint: median tumor weight (est.), dose: 1.25 mg/kg/injection, schedule: Q07DX002 (ip), vehicle: dextrose, higher = larger tumour) was 41 % of control and the T/C (endpoint: median tumor weight (est.), dose: 1.25 mg/kg/injection, schedule: Q07DX003 (ip), vehicle: dextrose, higher = larger tumour) was 76 % of control. The T/C (endpoint: median tumor weight (est.), dose: 2.5 mg/kg/injection, schedule: Q07DX002 (ip), vehicle: dextrose, higher = larger tumour) was 19 % of control and 36 % of control, the T/C (endpoint: median tumor weight (est.), dose: 5.0 mg/kg/injection, schedule: Q07DX002 (ip), vehicle: dextrose, higher = larger tumour) was 21 % of control and the T/C (endpoint: median tumor weight (est.), dose: 5.0 mg/kg/injection, schedule: Q07DX003 (ip), vehicle: dextrose, higher = larger tumour) was 29 % of control. For the same compound, the T/C (endpoint: median tumor weight (est.), dose: 10.0 mg/kg/injection, schedule: Q07DX002 (ip), vehicle: dextrose, higher = larger tumour) was 9 % of control.
With `CO[C@H]1C[C@](C)(O)Cc2cc3c(c(O)c21)C(=O)c1c(O)cc2c(c1C3=O)O[C@@H]1O[C@@]2(C)[C@H](O)[C@@H](N(C)C)[C@@H]1O` the T/C (endpoint: median survival time, dose: 72.0 mg/kg/injection, schedule: Q07DX003 (sc), vehicle: other, higher = longer survival) was 166 % of control, the T/C (endpoint: median tumor weight (est.), dose: 12.5 mg/kg/injection, schedule: Q07DX002 (ip), vehicle: other, higher = larger tumour) was 69 % of control and the T/C (endpoint: median tumor weight (est.), dose: 25.0 mg/kg/injection, schedule: Q07DX002 (ip), vehicle: other, higher = larger tumour) was 21 % of control and 41 % of control. The T/C (endpoint: median tumor weight (est.), dose: 50.0 mg/kg/injection, schedule: Q07DX002 (ip), vehicle: other, higher = larger tumour) was 1 % of control.
With `CC1(C)CC1(Br)Br` the T/C [1] was 155 % of control, the T/C [2] was 110 % of control and 96 % of control and the T/C [3] was 150 % of control. For the same compound, the T/C (endpoint: median tumor weight (est.), dose: 100.0 mg/kg/injection, schedule: Q07DX002 (ip), vehicle: saline with Tween-80, higher = larger tumour) was 124 % of control and 106 % of control, the T/C (endpoint: median tumor weight (est.), dose: 200.0 mg/kg/injection, schedule: Q07DX002 (ip), vehicle: saline with Tween-80, higher = larger tumour) was 155 % of control and the T/C (endpoint: median tumor weight (est.), dose: 400.0 mg/kg/injection, schedule: Q07DX002 (ip), vehicle: saline with Tween-80, higher = larger tumour) was 107 % of control.
With `O=C1OC(C(O)CO)C(O)=C1O` (centres undefined) the T/C [4] was 43 % of control, the T/C (endpoint: median tumor weight (est.), dose: 100.0 mg/kg/injection, schedule: Q07DX002 (ip), vehicle: saline, higher = larger tumour) was 100 % of control and the T/C (endpoint: median tumor weight (est.), dose: 800.0 mg/kg/injection, schedule: Q07DX002 (ip), vehicle: saline, higher = larger tumour) was 83 % of control. The T/C (endpoint: median tumor weight (est.), dose: 1600.0 mg/kg/injection, schedule: Q07DX002 (ip), vehicle: saline, higher = larger tumour) was 100 % of control.
In the case of `CC1=C[S+](c2ccccc2)c2cccc3cc4ccccc4c1c23` (centres undefined), the T/C (endpoint: median tumor weight (est.), dose: 0.5 mg/kg/injection, schedule: Q07DX002 (ip), vehicle: saline with Tween-80, higher = larger tumour) is reported as 109 % of control, the T/C (endpoint: median tumor weight (est.), dose: 1.0 mg/kg/injection, schedule: Q07DX002 (ip), vehicle: saline with Tween-80, higher = larger tumour) is reported as 162 % of control and the T/C (endpoint: median tumor weight (est.), dose: 2.0 mg/kg/injection, schedule: Q07DX002 (ip), vehicle: saline with Tween-80, higher = larger tumour) is reported as 151 % of control. The T/C (endpoint: median tumor weight (est.), dose: 4.0 mg/kg/injection, schedule: Q07DX002 (ip), vehicle: saline with Tween-80, higher = larger tumour) was 114 % of control.
For `CC(=O)OC1C2OC3C=C(C)CCC3(CO)C(C)(C1O)C21CO1` (centres undefined), the T/C (endpoint: median tumor weight (est.), dose: 1.0 mg/kg/injection, schedule: Q07DX002 (ip), vehicle: saline, higher = larger tumour) was 80 % of control.

— PubChem BioAssay AID212 (DTP/NCI, 2004)
